According to patent US12479848B2, “Substituted fused heteroaromatic bicyclic compounds as kinase inhibitors and the use thereof” (IMPACT THERAPEUTICS (SHANGHAI), INC, priority 2019, dated 2025):

Columns and labels:
ATR/ATRIP enzyme = target: T1, ATR/ATRIP enzyme (Homo sapiens, UniProt Q13535); assay: ATR enzyme activity experiment (HTRF); type: biochemical; conditions: for IC50: HTRF, p53 substrate, 30 minutes at room temperature; for inhibition at 0.05 µM: read-out: Inh %, inhibitory effects on ATR kinase activity at 50 nM
T1 construct: purchased Eurofins 14-953
Procedure: The test compound was diluted to a 4× final concentration with reaction buffer (25 mM HEPES (pH8.0), 10 mM MnCl2, 1% glycerol, 0.01% Brij-35, 5 mM DTT and 0.1% BSA). […] The mixture was centrifuged at 1000 rpm for 1 minute, and reacted at room temperature protected from light for 30 minutes. Then 5 μL of EDTA stop solution (250 mM) was added to stop the reaction. […] Data were analyzed using GraphPad Prism6.0, and fitted using the curve equation: Y=Bottom+(Top−Bottom)/(1+10^((Log IC50−X)*HillSlope)) and IC50 values were calculated.

[1] = system: human lung cancer cell NCI-H460; assay: MTT proliferation assay, NCI-H460; type: cell-based; conditions: Homo sapiens, NCI-H460, 96 h, 4 days, read-out: IC50 (nM), inhibition of proliferation of NCI-H460
Procedure: (§1) The cells were seeded into 96-well cell culture plate with a density of 2000/4000 cells per well and incubated overnight in a 5% CO2 incubator at 37° C. […] 5 L diluent of each concentration was added to 120 μL of medium (25 times diluted) and mixed by shaking. The overnight cell plates were taken and the culture medium was removed, 195 μL of fresh medium was added to each well, and 5 μL of diluted medium containing the corresponding concentration of the test compound was added respectively (the final concentration of DMSO is 1%), and the culture plate was then placed in a 5% CO2 incubator at 37° C. for 4 days. After removing the original solution, 100 μL of fresh serum-free DMEM medium containing MTT (0.5 mg/mL) was added to each well, the culture was continued. […] Cell viability (%)=(ODcompound−ODbackground)/(ODDMSO−ODbackground)×100. GraphPad Prism 6.0 was used to analyze the data. The inhibitory activity of compounds on cell proliferation was plotted based on cell viability and the logarithm of compound concentration.

[2] = system: human colon cancer cell LoVo; assay: MTT proliferation assay, LoVo; type: cell-based; conditions: Homo sapiens, LoVo, 96 h, 4 days, read-out: IC50 (nM), inhibition of proliferation of LoVo
Procedure: as §1, with “5 μL” for “5 L”, “viability (%)=(ODcompound−ODbackground)/(ODDMSO-ODbackground)×100.” for “viability (%)=(ODcompound−ODbackground)/(ODDMSO−ODbackground)×100.”

T1 sequence (Q13535 whole entry): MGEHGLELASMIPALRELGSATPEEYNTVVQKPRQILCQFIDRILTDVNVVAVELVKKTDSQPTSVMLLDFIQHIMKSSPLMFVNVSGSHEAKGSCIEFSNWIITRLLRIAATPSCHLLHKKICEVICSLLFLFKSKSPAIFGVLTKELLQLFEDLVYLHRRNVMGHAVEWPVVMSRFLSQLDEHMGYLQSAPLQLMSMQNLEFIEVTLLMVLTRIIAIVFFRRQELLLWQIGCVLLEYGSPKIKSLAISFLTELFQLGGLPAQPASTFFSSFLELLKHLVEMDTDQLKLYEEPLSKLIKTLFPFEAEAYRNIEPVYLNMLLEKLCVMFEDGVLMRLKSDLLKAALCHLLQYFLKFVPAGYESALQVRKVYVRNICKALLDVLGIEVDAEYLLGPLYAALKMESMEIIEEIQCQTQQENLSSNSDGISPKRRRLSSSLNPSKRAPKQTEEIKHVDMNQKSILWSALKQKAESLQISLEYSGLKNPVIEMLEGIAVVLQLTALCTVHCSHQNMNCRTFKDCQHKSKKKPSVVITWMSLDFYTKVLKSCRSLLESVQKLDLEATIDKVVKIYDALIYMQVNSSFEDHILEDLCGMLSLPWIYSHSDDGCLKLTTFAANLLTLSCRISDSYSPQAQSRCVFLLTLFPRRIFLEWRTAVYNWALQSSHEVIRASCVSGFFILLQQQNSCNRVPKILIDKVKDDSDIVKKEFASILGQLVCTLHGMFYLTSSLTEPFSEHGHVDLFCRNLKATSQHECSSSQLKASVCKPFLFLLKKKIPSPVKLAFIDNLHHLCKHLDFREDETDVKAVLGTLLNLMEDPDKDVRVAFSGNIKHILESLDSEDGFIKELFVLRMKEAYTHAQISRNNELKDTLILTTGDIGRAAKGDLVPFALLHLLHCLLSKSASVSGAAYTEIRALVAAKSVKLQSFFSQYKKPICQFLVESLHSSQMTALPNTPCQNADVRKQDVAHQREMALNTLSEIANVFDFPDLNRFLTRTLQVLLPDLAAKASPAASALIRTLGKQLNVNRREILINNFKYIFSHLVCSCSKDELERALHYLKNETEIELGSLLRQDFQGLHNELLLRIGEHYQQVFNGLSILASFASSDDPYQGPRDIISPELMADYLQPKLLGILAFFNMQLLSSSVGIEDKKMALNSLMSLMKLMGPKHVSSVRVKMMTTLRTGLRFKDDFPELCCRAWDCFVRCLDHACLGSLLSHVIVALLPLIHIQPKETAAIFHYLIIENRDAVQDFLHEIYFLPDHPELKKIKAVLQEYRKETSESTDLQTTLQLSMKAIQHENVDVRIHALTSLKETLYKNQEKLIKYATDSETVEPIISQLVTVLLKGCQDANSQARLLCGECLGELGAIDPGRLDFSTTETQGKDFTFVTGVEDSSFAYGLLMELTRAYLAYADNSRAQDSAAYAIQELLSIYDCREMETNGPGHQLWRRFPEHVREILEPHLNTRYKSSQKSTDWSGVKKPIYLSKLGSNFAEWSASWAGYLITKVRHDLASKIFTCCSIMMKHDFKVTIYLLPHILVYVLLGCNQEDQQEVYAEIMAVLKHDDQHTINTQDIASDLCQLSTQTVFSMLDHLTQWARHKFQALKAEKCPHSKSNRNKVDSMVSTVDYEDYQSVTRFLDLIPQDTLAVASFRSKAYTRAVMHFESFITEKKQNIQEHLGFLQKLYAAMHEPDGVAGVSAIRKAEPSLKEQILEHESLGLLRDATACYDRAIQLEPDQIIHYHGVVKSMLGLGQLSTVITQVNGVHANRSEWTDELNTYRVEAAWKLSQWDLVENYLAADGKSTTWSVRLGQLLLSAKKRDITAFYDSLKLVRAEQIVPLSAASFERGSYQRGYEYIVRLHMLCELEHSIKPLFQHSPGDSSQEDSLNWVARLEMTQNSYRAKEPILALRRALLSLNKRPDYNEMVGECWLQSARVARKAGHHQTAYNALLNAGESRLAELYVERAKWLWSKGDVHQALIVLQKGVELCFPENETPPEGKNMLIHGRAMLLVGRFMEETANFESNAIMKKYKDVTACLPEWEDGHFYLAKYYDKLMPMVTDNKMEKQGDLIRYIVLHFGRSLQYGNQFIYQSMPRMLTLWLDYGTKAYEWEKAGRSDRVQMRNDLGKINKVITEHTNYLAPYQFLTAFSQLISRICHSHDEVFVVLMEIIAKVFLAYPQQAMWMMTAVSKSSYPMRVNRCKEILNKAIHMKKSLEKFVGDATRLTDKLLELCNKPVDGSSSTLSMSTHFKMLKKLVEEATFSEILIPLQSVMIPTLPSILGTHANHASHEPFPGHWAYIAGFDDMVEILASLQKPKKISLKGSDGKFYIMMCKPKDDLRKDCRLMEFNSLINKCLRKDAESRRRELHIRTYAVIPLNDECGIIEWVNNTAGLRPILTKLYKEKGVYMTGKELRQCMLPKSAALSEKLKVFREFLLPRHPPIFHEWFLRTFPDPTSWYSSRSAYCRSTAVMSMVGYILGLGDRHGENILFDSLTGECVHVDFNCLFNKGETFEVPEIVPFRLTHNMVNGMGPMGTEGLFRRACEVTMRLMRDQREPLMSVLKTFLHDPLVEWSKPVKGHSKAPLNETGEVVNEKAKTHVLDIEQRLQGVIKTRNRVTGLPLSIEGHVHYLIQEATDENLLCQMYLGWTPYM
T1 sequence (Q8WXE1 whole entry partner): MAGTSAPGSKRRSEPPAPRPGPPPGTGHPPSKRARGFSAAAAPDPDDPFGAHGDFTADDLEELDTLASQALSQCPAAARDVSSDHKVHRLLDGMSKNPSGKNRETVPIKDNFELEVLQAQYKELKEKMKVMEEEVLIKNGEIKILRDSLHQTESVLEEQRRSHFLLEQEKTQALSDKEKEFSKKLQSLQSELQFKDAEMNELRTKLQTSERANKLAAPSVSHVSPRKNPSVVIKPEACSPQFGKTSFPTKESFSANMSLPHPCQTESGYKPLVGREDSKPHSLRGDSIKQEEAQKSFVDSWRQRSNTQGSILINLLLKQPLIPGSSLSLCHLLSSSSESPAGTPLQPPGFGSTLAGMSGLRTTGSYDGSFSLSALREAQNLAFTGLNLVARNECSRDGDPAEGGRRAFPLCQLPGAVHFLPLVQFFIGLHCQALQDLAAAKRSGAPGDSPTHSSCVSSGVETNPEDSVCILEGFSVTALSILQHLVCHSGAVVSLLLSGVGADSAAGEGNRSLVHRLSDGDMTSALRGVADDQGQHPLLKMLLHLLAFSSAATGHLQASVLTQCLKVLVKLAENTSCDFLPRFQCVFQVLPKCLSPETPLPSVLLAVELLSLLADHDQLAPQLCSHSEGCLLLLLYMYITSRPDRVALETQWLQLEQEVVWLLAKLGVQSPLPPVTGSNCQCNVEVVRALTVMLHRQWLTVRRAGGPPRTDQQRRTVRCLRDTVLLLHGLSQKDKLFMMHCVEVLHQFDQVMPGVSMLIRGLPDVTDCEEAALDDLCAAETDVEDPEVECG

SMILES | IC50 (ATR/ATRIP enzyme) [nM] | IC50 [1] [nM] | IC50 [2] [nM] | inhibition at 0.05 µM (ATR/ATRIP enzyme) [%]
C[C@@H]1COCCN1c1cc(-c2cncn2C)c2ncc(-c3ccn[nH]3)n2n1 [Example 5, (R)-3-methyl-4-(8-(1-methyl-1H-imidazol-5-yl)-3-(1H-pyrazol-5-yl)imidazo[1,2-b]pyridazin-6-yl)morpholine] | 58.9 | 1610 | 557 | –
C[C@@H]1COCCN1c1cc(-c2ccncc2F)c2cnc(-c3ccn[nH]3)n2n1 [Example 43, (R)-4-(4-(3-fluoropyridin-4-yl)-7-(1H-pyrazol-5-yl)imidazo[1,5-b]pyridazin-2-yl)-3-methylmorpholine] | 12 | 18.2 | 23.1 | –
C[C@@H]1COCCN1c1cc(-c2ccnn2C)c2cnc(-c3c[nH]cn3)n2n1 [Example 23, (R)-4-(7-(1H-imidazol-4-yl)-4-(1-methyl-1H-pyrazol-5-yl)imidazo[1,5-b]pyridazin-2-yl)-3-methylmorpholine] | > 1000 | 1800 | 1530 | –
Cc1ncccc1-c1cc(N2CCOC[C@H]2C)nn2c(-c3ccn[nH]3)ncc12 [Example 42, (R)-3-methyl-4-(4-(2-methylpyridin-3-yl)-7-(1H-pyrazol-5-yl)imidazo[1,5-b]pyridazin-2-yl)morpholine] | 2 | 30.6 | 44.7 | –
Cc1ccc(-c2cc(N3CCOC[C@H]3C)nn3c(-c4ccn[nH]4)ncc23)cn1 [Example 24, (R)-3-methyl-4-(4-(6-methylpyridin-3-yl)-7-(1H-pyrazol-5-yl)imidazo[1,5-b]pyridazin-2-yl)morpholine] | 2 | 27.8 | 34.4 | –
CCn1nccc1-c1cc(N2CCOC[C@H]2C)nn2c(-c3ccn[nH]3)ncc12 [Example 37, (R)-4-(4-(1-ethyl-1H-pyrazol-5-yl)-7-(1H-pyrazol-5-yl)imidazo[1,5-b]pyridazin-2-yl)-3-methylmorpholine] | 7 | 58.8 | 45 | –
C[C@@H]1COCCN1c1cc(-c2ccnc3[nH]ccc23)c2cnc(-c3ccn[nH]3)n2n1 [Example 55, (R)-4-(7-(1H-pyrazol-5-yl)-4-(1H-pyrrolo[2,3-b]pyridin-4-yl)imidazo[1,5-b]pyridazin-2-yl)-3-methylmorpholine] | – | 95.3 | 51 | –
Cc1ccc(-c2cc(N3CCOC[C@H]3C)nn3c(-c4cc(C)n[nH]4)ncc23)cn1 [Example 39, (R)-3-methyl-4-(7-(3-methyl-1H-pyrazol-5-yl)-4-(6-methylpyridin-3-yl)imidazo[1,5-b]pyridazin-2-yl)morpholine] | 3 | 26.1 | 30.7 | –
Cn1nccc1-c1cc(N2CCOCC2)nn2c(-c3ccn[nH]3)nnc12 [Example 12, 4-(8-(1-methyl-1H-pyrazol-5-yl)-3-(1H-pyrazol-5-yl)-[1,2,4]triazolo[4,3-b]pyridazin-6-yl)morpholine] | – | > 10000 | 3230 | –
Cc1cnccc1-c1cc(N2CCOC[C@H]2C)nn2c(-c3ccn[nH]3)ncc12 [Example 51, (R)-3-methyl-4-(4-(3-methylpyridin-4-yl)-7-(1H-pyrazol-5-yl)imidazo[1,5-b]pyridazin-2-yl)morpholine] | – | 76.3 | 76.7 | –
C[C@@H]1COC[C@@H](C)N1c1cc(-c2ccnn2C)c2cnc(-c3ccn[nH]3)n2n1 [Example 34, (3R,5R)-3,5-dimethyl-4-(4-(1-methyl-1H-pyrazol-5-yl)-7-(1H-pyrazol-5-yl)imidazo[1,5-b]pyridazin-2-yl)morpholine] | – | 1520 | 953 | –
C[C@@H]1COCCN1c1cc(-c2ccccc2F)c2cnc(-c3ccn[nH]3)n2n1 [Example 25, (R)-4-(4-(2-fluorophenyl)-7-(1H-pyrazol-5-yl)imidazo[1,5-b]pyridazin-2-yl)-3-methylmorpholine] | 7 | 40.4 | 61.9 | –
C[C@@H]1COCCN1c1cc(-c2ccc(S(C)(=O)=O)cc2)c2cnc(-c3ccn[nH]3)n2n1 [Example 35, (R)-3-methyl-4-(4-(4-(methylsulfonyl)phenyl)-7-(1H-pyrazol-5-yl)imidazo[1,5-b]pyridazin-2-yl)morpholine] | – | 171 | 75.4 | 71
Cc1ccccc1-c1cc(N2CCOC[C@H]2C)nn2c(-c3ccn[nH]3)ncc12 [Example 40, (R)-4-(7-(1H-pyrazol-5-yl)-4-(o-tolyl)imidazo[1,5-b]pyridazin-2-yl)-3-methylmorpholine] | 2 | 17.4 | 21.8 | –
C[C@@H]1COCCN1c1cc(-c2ccn[nH]2)c2cnc(-c3ccn[nH]3)n2n1 [Example 27, (R)-4-(4,7-di(1H-pyrazol-5-yl)imidazo[1,5-b]pyridazin-2-yl)-3-methylmorpholine] | – | 287 | 124 | –
Cc1cnn(C)c1-c1cc(N2CCOC[C@H]2C)nn2c(-c3ccn[nH]3)ncc12 [Example 41, (R)-4-(4-(1,4-dimethyl-1H-pyrazol-5-yl)-7-(1H-pyrazol-5-yl)imidazo[1,5-b]pyridazin-2-yl)-3-methylmorpholine] | 2 | 48.8 | 49.5 | –
Cc1ccc(C)n1-c1cc(N2CCOC[C@H]2C)nn2c(-c3ccn[nH]3)ncc12 [Example 36, (R)-4-(4-(2,5-dimethyl-1H-pyrrol-1-yl)-7-(1H-pyrazol-5-yl)imidazo[1,5-b]pyridazin-2-yl)-3-methylmorpholine] | – | 116 | 114 | 63
C[C@@H]1COCCN1c1cc(-c2ccnn2C)c2cnc(-c3cc[nH]c3)n2n1 [Example 21, (R)-3-methyl-4-(4-(1-methyl-1H-pyrazol-5-yl)-7-(1H-pyrrol-3-yl)imidazo[1,5-b]pyridazin-2-yl)morpholine] | 6.78 | 244 | 155 | –
Cc1nc([S+](C)[O-])ccc1-c1cc(N2CCOC[C@H]2C)nn2c(-c3ccn[nH]3)ncc12 (stereo partly drawn) [Example 50, (3R)-3-methyl-4-(4-(2-methyl-6-(methylsulfinyl)pyridin-3-yl)-7-(1H-pyrazol-5-yl)imidazo[1,5-b]pyridazin-2-yl)morpholine] | 16 | 86.8 | 59.9 | –
C[C@@H]1COCCN1c1cc(-c2cccnc2C(F)(F)F)c2cnc(-c3ccn[nH]3)n2n1 [Example 47, (R)-4-(7-(1H-pyrazol-5-yl)-4-(2-(trifluoromethyl)pyridin-3-yl)imidazo[1,5-b]pyridazin-2-yl)-3-methylmorpholine] | 1 | 18.2 | 20.7 | –
C[C@@H]1COCCN1c1cc(-c2ccn(CCF)n2)c2cnc(-c3ccn[nH]3)n2n1 [Example 61, (R)-4-(4-(1-(2-fluoroethyl)-1H-pyrazol-3-yl)-7-(1H-pyrazol-5-yl)imidazo[1,5-b]pyridazin-2-yl)-3-methylmorpholine] | – | 169 | 175 | –
Cc1cc(S(C)(=O)=O)ncc1-c1cc(N2CCOC[C@H]2C)nn2c(-c3ccn[nH]3)ncc12 [Example 44, (R)-3-methyl-4-(4-(4-methyl-6-(methylsulfonyl)pyridin-3-yl)-7-(1H-pyrazol-5-yl)imidazo[1,5-b]pyridazin-2-yl)morpholine] | – | 289 | 138 | 58
C[C@@H]1COCCN1c1cc(-c2ccnn2C)c2ncc(-c3ccn[nH]3)n2c1 [Example 1, (R)-3-methyl-4-(8-(1-methyl-1H-pyrazol-5-yl)-3-(1H-pyrazol-5-yl)imidazo[1,2-a]pyridin-6-yl)morpholine] | > 10000 | – | – | –
C[C@@H]1COCCN1c1cc(-c2ccnn2C)c2nnc(-c3ccn[nH]3)n2n1 [Example 15, (R)-3-methyl-4-(8-(1-methyl-1H-pyrazol-5-yl)-3-(1H-pyrazol-5-yl)-[1,2,4]triazolo[4,3-b]pyridazin-6-yl)morpholine] | – | 1920 | 597 | –
